The text below walks through data of patent publication US20090131431A1, “Pyrazolo[3,4-b]pyridine compounds, and their use as a PDE4 inhibitors” (priority 2005, published 2009).

The test has as its target T1, PDE4B (human recombinant) (Homo sapiens, UniProt Q07343).
T1 construct: made in house
Description: Inhibition of PDE4B activity: SPA and/or Fluorescence Polarisation (FP) assay. The format is biochemical. The settings on record: one reading (n=1) or average of 2 or more readings, read-out: PDE4B pIC50 (±about 0.5) (converted). As for the experimental part: The ability of compounds to inhibit catalytic activity at PDE4B or 4D (human recombinant), PDE3 (from bovine aorta), PDE5 (human recombinant) or PDE6 (from bovine retina) can optionally be determined by Scintillation Proximity Assay (SPA) in a 96-well format.
The enzyme concentration is adjusted so that no more than 20% hydrolysis of the substrate defined below occurs in control wells without compound, during the incubation. For the PDE3, PDE4B and PDE4D assays, [5′,8-3H]Adenosine 3′,5′-cyclic phosphate (Amersham Pharmacia Biotech, code TRK.559; or Amersham Biosciences UK Ltd, Pollards Wood, Chalfont St Giles, Buckinghamshire HP8 4SP, UK) is added to give 0.05 uCi per well and about 10 nM final concentration. […] Plates containing assay mixture, suitably approx. 100 ul volume of assay mixture, are mixed on an orbital shaker for 5 minutes and incubated at ambient temperature for 1 hour. Phosphodiesterase SPA beads (Amersham Pharmacia Biotech, code RPNQ 0150) are added (about 1 mg per well) to terminate the assay. Plates are sealed and shaken and allowed to stand at ambient temperature for 35 minutes to 1 hour (suitably 35 minutes) to allow the beads to settle. […] Curves are analysed using ActivityBase and XLfit (ID Business Solutions Limited, 2 Ocean Court, Surrey Research Park, Guildford, Surrey GU2 7QB, United Kingdom). Results are expressed as pIC50 values.
The ability of compounds to inhibit catalytic activity at PDE4B (human recombinant) or PDE4D (human recombinant) can optionally be determined by IMAP Fluorescence Polarisation (FP) assay (IMAP Explorer kit, available from Molecular Devices Corporation, Sunnydale, Calif., USA; Molecular Devices code: R8062) in 384-well format.
The IMAP FP assay is able to measure PDE activity in an homogenous, non-radioactive assay format. The FP assay uses the ability of immobilised trivalent metal cations, coated onto nanoparticles (tiny beads), to bind the phosphate group of Fl-AMP that is produced on the hydrolysis of fluorescein-labelled (Fl) cyclic adenosine mono-phosphate (Fl-cAMP) to the non-cyclic Fl-AMP form. […] Binding of Fl-AMP product to the beads (coated with the immobilised trivalent cations) slows the rotation of the bound Fl-AMP and leads to an increase in the fluorescence polarisation ratio of parallel to perpendicular light. Inhibition of the PDE reduces/inhibits this signal increase.
The enzyme level is set by experimentation so that reaction is linear throughout the incubation. Fluorescein adenosine 3′,5′-cyclic phosphate (from Molecular Devices Corporation, Molecular Devices code: R7091) is added to give about 40 nM final concentration (final assay volume usually ca. 20-40 ul, suitably ca. 20 ul). Plates are mixed on an orbital shaker for 10 seconds and incubated at ambient temperature for 40 minutes. IMAP binding reagent (as described above, from Molecular Devices Corporation, Molecular Devices code: R7207) is added (60 ul of a 1 in 400 dilution in binding buffer of the kit stock solution) to terminate the assay. Plates are allowed to stand at ambient temperature for 1 hour. The Fluorescence Polarisation (FP) ratio of parallel to perpendicular light is measured using an Analyst™ plate reader (from Molecular Devices Corporation). […] Curves are analysed using ActivityBase and XLfit (ID Business Solutions Limited, 2 Ocean Court, Surrey Research Park, Guildford, Surrey GU2 7QB, United Kingdom). Results are expressed as plC50 values.
On the technique in general: In fluorescence polarisation assays a small probe gives low polarisation when free and higher when bound to something large.

T1 sequence (Q07343 1-564 isoform Q07343-2): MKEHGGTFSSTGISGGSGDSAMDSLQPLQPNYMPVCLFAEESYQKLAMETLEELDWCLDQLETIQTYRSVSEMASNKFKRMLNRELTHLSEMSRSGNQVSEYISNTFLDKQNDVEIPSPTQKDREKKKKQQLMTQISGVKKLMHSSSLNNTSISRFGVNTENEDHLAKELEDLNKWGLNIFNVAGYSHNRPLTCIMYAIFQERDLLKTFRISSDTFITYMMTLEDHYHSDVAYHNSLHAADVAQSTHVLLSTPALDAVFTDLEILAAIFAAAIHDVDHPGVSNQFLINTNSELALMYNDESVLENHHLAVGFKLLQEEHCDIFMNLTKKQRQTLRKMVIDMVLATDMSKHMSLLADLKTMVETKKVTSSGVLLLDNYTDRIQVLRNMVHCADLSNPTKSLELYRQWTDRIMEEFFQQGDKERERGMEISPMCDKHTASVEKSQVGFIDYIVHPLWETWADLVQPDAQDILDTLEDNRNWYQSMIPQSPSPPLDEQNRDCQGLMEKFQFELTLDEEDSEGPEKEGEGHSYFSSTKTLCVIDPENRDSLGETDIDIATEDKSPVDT

On to `CCc1nc2c(cnn2CC)c(NC2CCOCC2)c1CNC(=O)c1ccccc1O` [Example 250, N-{[1,6-diethyl-4-(tetrahydro-2H-pyran-4-ylamino)-1H-pyrazolo[3,4-b]pyridin-5-yl]methyl}-2-hydroxybenzamide], for which the IC50 is 0.01 to 0.1 nM.

As for `CCn1ncc2c(NC3CCN(C(N)=O)CC3)c(CNC(=O)c3ccc(S(C)(=O)=O)cc3)c(C)nc21` [Example 259, 4-({1-ethyl-6-methyl-5-[({[4-(methylsulfonyl)phenyl]carbonyl}amino)methyl]-1H-pyrazolo[3,4-b]pyridin-4-yl}amino)-1-piperidinecarboxamide], the IC50 is 0.126 to 1 nM.

For `CCn1ncc2c(NC3CCOCC3)c(CNC(=O)c3coc(C)n3)c(C)nc21` [Example 318, N-{[1-ethyl-6-methyl-4-(tetrahydro-2H-pyran-4-ylamino)-1H-pyrazolo[3,4-b]pyridin-5-yl]methyl}-2-methyl-1,3-oxazole-4-carboxamide], the IC50 is 0.126 to 1 nM.

With `CCn1ncc2c(NC3CCN(C(N)=O)CC3)c(CNC(=O)c3ccc(C4CCCC4)cc3)c(C)nc21` [Example 273, 4-{[5-({[(4-cyclopentylphenyl)carbonyl]amino}methyl)-1-ethyl-6-methyl-1H-pyrazolo[3,4-b]pyridin-4-yl]amino}-1-piperidinecarboxamide], the IC50 is 0.01 to 0.1 nM.

As to `CCn1ncc2c(NC3CCOCC3)c(CNC(=O)c3cccc(N(C)C)c3)cnc21` [Example 120, 3-(dimethylamino)-N-{[1-ethyl-4-(tetrahydro-2H-pyran-4-ylamino)-1H-pyrazolo[3,4-b]pyridin-5-yl]methyl}benzamide], the IC50 was 0.126 to 1 nM.

`CCc1nc2c(cnn2CC)c(NC2CCN(C(N)=O)CC2)c1CNC(=O)c1ccco1` [Example 240, 4-[(1,6-diethyl-5-{[(2-furanylcarbonyl)amino]methyl}-1H-pyrazolo[3,4-b]pyridin-4-yl)amino]-1-piperidinecarboxamide]: the IC50 was 0.01 to 0.1 nM.

As to `CCc1nc2c(cnn2CC)c(NC2CCOCC2)c1CNC(=O)c1ccc(F)cc1` [Example 307, N-{[1,6-diethyl-4-(tetrahydro-2H-pyran-4-ylamino)-1H-pyrazolo[3,4-b]pyridin-5-yl]methyl}-4-fluorobenzamide], the IC50 is 0.126 to 1 nM.

On to `CCn1ncc2c(NC3CCOCC3)c(CNC(=O)c3cccnc3)c(C)nc21` [Example 125, N-{[1-ethyl-6-methyl-4-(tetrahydro-2H-pyran-4-ylamino)-1H-pyrazolo[3,4-b]pyridin-5-yl]methyl}-3-pyridinecarboxamide], for which the IC50 was 0.126 to 1 nM.

On to `CCc1nc2c(cnn2CC)c(NC2CCOCC2)c1CNS(=O)(=O)Cc1ccccc1` [Example 169, N-{[1,6-diethyl-4-(tetrahydro-2H-pyran-4-ylamino)-1H-pyrazolo[3,4-b]pyridin-5-yl]methyl}-1-phenylmethanesulfonamide], for which the IC50 was 0.126 to 1 nM.

In the case of `CCOc1ncccc1C(=O)NCc1c(CC)nc2c(cnn2CC)c1NC1CCOCC1` [Example 159, N-{[1,6-diethyl-4-(tetrahydro-2H-pyran-4-ylamino)-1H-pyrazolo[3,4-b]pyridin-5-yl]methyl}-2-(ethyloxy)-3-pyridinecarboxamide], the IC50 is 0.01 to 0.1 nM.

For the molecule `CCn1ncc2c(NC3CCN(C(N)=O)CC3)c(CNC(=O)c3ccc(C(=O)NC)cc3)c(C)nc21` [Example 268, N-[(4-{[1-(aminocarbonyl)-4-piperidinyl]amino}-1-ethyl-6-methyl-1H-pyrazolo[3,4-b]pyridin-5-yl)methyl]-N′-methyl-1,4-benzenedicarboxamide], the IC50 was 0.01 to 0.1 nM.

Turning to `CCc1nc2c(cnn2CC)c(NC2CCOCC2)c1CN1Cc2ccccc2C1=O` [Example 199, 2-{[1,6-diethyl-4-(tetrahydro-2H-pyran-4-ylamino)-1H-pyrazolo[3,4-b]pyridin-5-yl]methyl}-2,3-dihydro-1H-isoindol-1-one], the IC50 was 0.01 to 0.1 nM.
